This note sets out measurements from ChEMBL document CHEMBL6109121, “Discovery of Novel Sulfonylurea NLRP3 Inflammasome Inhibitor for the Treatment of Multiple Inflammatory Diseases” (J Med Chem, 2025).

In general, CC50 refers to the concentration at which the toxic effect on the cells reaches its halfway point. The low end stands for harm at low concentration, the high end for better tolerance by the cells. Broadly, the IC50 is the concentration needed to halve the response being measured.

Assay [1] is described as follows: Cytotoxicity against male C57BL/6J mouse BMDM cells. It is filed as functional.
A short description of assay [2]: Inhibition of NLRP3 inflammasome activation in LPS/ATP-stimulated male C57BL/6J mouse BMDM cells assessed as inhibition of IL-1beta secretion […] for 4 hrs followed by compound administration for 30 mins and measured after 1 hrs of ATP addition by ELISA. The format is cell-based.
Assay [3] has as its system Mus musculus. The assay can be described thus: Anti-colitis activity in DSS-induced acute ulcerative colitis male C57BL/6J mouse model assessed as improvement in stool consistency at 5 mg/kg, po preadministered with DSS for 7 days followed by 3 days of drinking water and measured after 10 days of compound administration. It is filed as functional, organism-based. The note with it: time 10.0 day.

Assay [4] deals with Mus musculus. The assay can be described thus: Anti-colitis activity in DSS-induced acute ulcerative colitis male C57BL/6J mouse model assessed as reduction in body weight loss at 5 mg/kg, po preadministered with DSS for 7 days followed by 3 days of drinking water and measured after 10 days of compound administration. The format is functional, organism-based. The note with it: time 10.0 day.

The test system of assay [5] is Mus musculus. The assay can be described thus: Antidiabetic activity in HFD-fed STZ-induced diabetic kidney disease male C57BL/6J mouse model assessed as improvement of glucose tolerance at 20 mg/kg fed with high fat diet for 4 weeks followed by STZ administration for 5 days further administered with compound via gavage for 6 weeks and measured after 120 mins of glucose administration by OGTT. It is filed as functional, organism-based. The note with it: time 60600.0 min.

Assay [6] has as its system Mus musculus. In words: Anti-colitis activity in DSS-induced acute ulcerative colitis male C57BL/6J mouse model assessed as increase in colon length at 5 mg/kg, po preadministered with DSS for 7 days followed by 3 days of drinking water and measured after 10 days of compound administration. The format is functional, organism-based. The note with it: time 10.0 day.
Assay [7] is described as follows: Inhibition of NLRP3 inflammasome activation in human THP-1 cells assessed as inhibition of IL-1beta release. The format is cell-based.
Assay [8] relates to Mus musculus. The assay can be described thus: Anti-colitis activity in DSS-induced acute ulcerative colitis male C57BL/6J mouse model assessed as decrease in disease activity index score at 5 mg/kg, po preadministered with DSS for 7 days followed by 3 days of drinking water and measured after 10 days of compound administration. It is filed as functional, organism-based. The note with it: time 10.0 day.

For assay [9], the target named is NACHT, LRR and PYD domains-containing protein 3 (Mus musculus) (UniProt Q8R4B8). The note with it: C57BL/6J, dose 20.0 mg/kg, route po, time 13.0 hrs.
NACHT, LRR and PYD domains-containing protein 3 (Mus musculus), sequence (Q8R4B8 whole entry, the tested form may be a part): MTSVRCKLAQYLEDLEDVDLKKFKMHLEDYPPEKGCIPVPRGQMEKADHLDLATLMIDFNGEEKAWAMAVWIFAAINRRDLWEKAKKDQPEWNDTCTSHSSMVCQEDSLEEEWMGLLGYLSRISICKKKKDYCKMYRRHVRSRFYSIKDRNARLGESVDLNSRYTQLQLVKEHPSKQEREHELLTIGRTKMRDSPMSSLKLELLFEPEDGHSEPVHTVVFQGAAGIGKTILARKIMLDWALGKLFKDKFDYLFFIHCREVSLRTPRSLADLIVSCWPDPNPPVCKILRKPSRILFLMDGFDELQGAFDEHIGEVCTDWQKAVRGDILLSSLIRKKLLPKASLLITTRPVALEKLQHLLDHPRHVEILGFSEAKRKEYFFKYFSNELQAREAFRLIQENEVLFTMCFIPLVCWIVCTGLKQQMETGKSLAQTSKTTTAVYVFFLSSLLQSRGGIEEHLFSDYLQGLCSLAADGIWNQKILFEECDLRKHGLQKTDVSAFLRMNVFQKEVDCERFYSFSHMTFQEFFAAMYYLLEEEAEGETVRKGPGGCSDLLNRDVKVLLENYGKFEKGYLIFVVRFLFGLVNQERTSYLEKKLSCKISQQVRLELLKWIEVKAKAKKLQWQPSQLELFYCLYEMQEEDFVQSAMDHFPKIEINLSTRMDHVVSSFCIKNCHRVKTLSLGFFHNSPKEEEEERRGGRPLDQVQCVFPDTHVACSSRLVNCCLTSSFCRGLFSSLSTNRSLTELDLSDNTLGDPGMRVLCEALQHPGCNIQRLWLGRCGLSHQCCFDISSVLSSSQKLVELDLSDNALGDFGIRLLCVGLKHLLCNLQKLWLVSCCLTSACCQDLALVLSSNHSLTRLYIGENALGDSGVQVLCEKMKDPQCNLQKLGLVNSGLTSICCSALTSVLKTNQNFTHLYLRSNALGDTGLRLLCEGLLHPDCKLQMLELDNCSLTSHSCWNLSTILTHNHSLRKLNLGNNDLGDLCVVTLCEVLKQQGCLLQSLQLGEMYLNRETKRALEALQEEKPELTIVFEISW
The test system of assay [10] is Mus musculus. The assay can be described thus: Effect on TNF-alpha level in serum of LPS/ATP-induced acute peritonitis male C57BL/6J mouse model at 20 mg/kg, po preadministered with compound for 1 hrs followed by LPS addition for 2 hrs and measured 12 hrs post ATP administration by ELISA. The note with it: time 13.0 hrs. It is filed as functional, organism-based. On the technique in general: ELISA stands for enzyme-linked immunosorbent assay.

Assay [11] concerns Mus musculus. In words: Anti-colitis activity in DSS-induced acute ulcerative colitis male C57BL/6J mouse model assessed as reduction in fecal bleeding at 5 mg/kg, po preadministered with DSS for 7 days followed by 3 days of drinking water and measured after 10 days of compound administration. It is filed as functional, organism-based. The note with it: time 10.0 day.
Assay [12] relates to Mus musculus. The assay can be described thus: Antidiabetic activity in HFD-fed STZ-induced diabetic kidney disease male C57BL/6J mouse model assessed as reduction in macrophage infiltration in kidney at 20 mg/kg fed with high fat diet for 4 weeks followed by STZ administration for 5 days and measured 6 weeks post compound administration via gavage by F4/80 immunostaining based analysis. The format is functional, organism-based.

SMILES strings stand for the structures. The source made the active and inactive calls. No cut-off for these calls is given here.

As for `O=C(Nc1c2c(cc3c1CCC3)CCC2)NS(=O)(=O)NC1CCN(C2CC2)CC1`, in assay [1], the CC50 was > 100 µM. For the same compound, in assay [2], the IC50 worked out at 1.95 µM.
For `CC(C)(O)c1coc(S(=O)(=O)NC(=O)Nc2ccccc2C(=O)c2ccoc2)c1`, in that order: > 100 µM and > 50 µM.
As for `CN(C1CCN(Cc2ccccc2)CC1)S(=O)(=O)NC(=O)Nc1c2c(cc3c1CCC3)CCC2`, the CC50 in assay [1] is > 100 µM. In addition, in [2], the IC50 was > 50 µM.
Taken in the same sequence, the figures for `C=C(c1ccccc1)c1ccccc1NC(=O)NS(=O)(=O)c1cc(C(C)(C)O)co1` were > 100 µM and 19.8 µM.
As for `CN1CCC(N(C)S(=O)(=O)NC(=O)Nc2cccc3c2C(=O)c2ccccc2-3)CC1`, the CC50 in [1] is > 100 µM. For the same compound, in [2], the IC50 is > 50 µM.
Turning to `CC(C)(O)c1coc(S(=O)(=O)NC(=O)Nc2ccccc2C(=O)N2CCCC2)c1`, in assay [1], the CC50 was > 100 µM. In addition, the half-maximal inhibitory concentration (IC50) in assay [2] came out at 19.1 µM.
Taken in the same sequence, the figures for `CC(C)(O)c1coc(S(=O)(=O)NC(=O)Nc2ccccc2Cc2ccccc2)c1` were > 100 µM and > 50 µM.
For `CC(C)(O)c1coc(S(=O)(=O)NC(=O)Nc2ccccc2C(=O)c2ccccn2)c1`, in that order: > 100 µM and > 50 µM.
Taken in the same sequence, the figures for `CN1CCC(N(C)S(=O)(=O)NC(=O)Nc2cc(C(C)(C)C)ccc2-c2ccc(C(C)(C)C)cc2)CC1` were 10.2 µM and > 50 µM.
Regarding `CC(C)(O)c1coc(S(=O)(=O)NC(=O)Nc2c3c(cc4c2CCC4)CCC3)c1`, the result in the assay on Mus musculus [3], in the assay on Mus musculus [8] and in the assay on Mus musculus [11] was Active. The Activity result in the assay on Mus musculus [4] was “Active; Significant Difference Not Observed”. The result in the assay with Mus musculus [5], in the assay with Mus musculus [6], in the assay with Mus musculus [10] and in the assay with Mus musculus [12] was inactive. The IC50 in assay [7] was 0.058 µM; in assay [2], 0.036 µM. Also, the inhibition result in assay [9] was “Active”.
As for `CC(=O)N1CCC(NS(=O)(=O)NC(=O)Nc2c3c(cc4c2CCC4)CCC3)CC1`, the CC50 in assay [1] was > 100 µM. Besides, the IC50 in assay [2] stood at 5.37 µM.
Consider `O=C(Nc1c2c(cc3c1CCC3)CCC2)NS(=O)(=O)Nc1cnn(C2CCOCC2)c1`, for which the CC50 in assay [1] was > 100 µM. Further, the IC50 in [2] worked out at 0.139 µM.
As to `Cn1cc(NS(=O)(=O)NC(=O)Nc2c3c(cc4c2CCC4)CCC3)cn1`, in [1], the CC50 is > 100 µM. The IC50 in assay [2] worked out at 0.155 µM.
Regarding `CN(c1ccncc1)S(=O)(=O)NC(=O)Nc1c2c(cc3c1CCC3)CCC2`, the CC50 in [1] was > 100 µM. Further, the IC50 in assay [2] was found to be 4.43 µM.
Turning to `CN1CCC(N(C)S(=O)(=O)NC(=O)Nc2cccc3c2OCO3)CC1`, the CC50 in assay [1] was > 100 µM. The IC50 in assay [2] is > 50 µM.
Taken in the same sequence, the figures for `CC(C)(O)c1coc(S(=O)(=O)NC(=O)Nc2ccccc2C(=O)c2ccccc2)c1` were > 100 µM and 3.82 µM.
As to `CN(C)C(=O)c1ccccc1NC(=O)NS(=O)(=O)c1cc(C(C)(C)O)co1`, in [1], the CC50 is > 100 µM. Also, in assay [2], the IC50 was > 50 µM.
Taken in the same sequence, the figures for `Cc1ccc2cccc(NC(=O)NS(=O)(=O)N(C)C3CCN(C)CC3)c2n1` were > 100 µM and > 50 µM.
Taken in the same sequence, the figures for `CN1CCC(N(C)S(=O)(=O)NC(=O)Nc2ccc3c(c2)Cc2ccccc2-3)CC1` were > 100 µM and > 50 µM.
For `CN1CCC(N(C)S(=O)(=O)NC(=O)Nc2ccccc2C(=O)c2ccccc2)CC1`, in that order: > 100 µM and 18 µM.
Turning to `CCN1CCC(N(C)S(=O)(=O)NC(=O)Nc2c3c(cc4c2CCC4)CCC3)CC1`, the CC50 in [1] was > 100 µM. Also, in [2], the IC50 stood at 0.724 µM.
Taken in the same sequence, the figures for `CN1CCC(NS(=O)(=O)NC(=O)Nc2c3c(cc4c2CCC4)CCC3)CC1` were > 100 µM and 0.979 µM.
For `O=C(Nc1c2c(cc3c1CCC3)CCC2)NS(=O)(=O)N1CCc2ccccc2C1`, in that order: > 100 µM and 0.317 µM.
For `CN(C1CCOCC1)S(=O)(=O)NC(=O)Nc1c2c(cc3c1CCC3)CCC2`, in that order: > 100 µM and 0.544 µM.
With `O=C(Nc1c2c(cc3c1CCC3)CCC2)NS(=O)(=O)N1CCN2CCC1CC2`, the CC50 in assay [1] is > 100 µM. For the same compound, the concentration for half-maximal inhibition (IC50) in assay [2] amounted to 0.185 µM.
For `CC(C)(O)c1coc(S(=O)(=O)NC(=O)Nc2ccccc2C(=O)N2CCOCC2)c1`, in that order: > 100 µM and > 50 µM.
Taken in the same sequence, the figures for `CC(C)N1CCC(NS(=O)(=O)NC(=O)Nc2c3c(cc4c2CCC4)CCC3)CC1` were > 100 µM and 2.9 µM.
Turning to `O=C(Nc1c2c(cc3c1CCC3)CCC2)NS(=O)(=O)N1CCNC2(CC2)C1`, the CC50 in assay [1] was > 100 µM. Moreover, the IC50 in assay [2] worked out at 2.03 µM.
`CN1CCC(N(C)S(=O)(=O)NC(=O)Nc2c3c(cc4c2CCC4)CCC3)C1` (centres undefined): in assay [1], the CC50 was > 100 µM. For the same compound, in [2], the IC50 is 0.122 µM.
Regarding `CC(C)(O)c1coc(S(=O)(=O)NC(=O)Nc2ccccc2Oc2ccccc2)c1`, the CC50 in assay [1] is > 100 µM. Also, the IC50 in [2] was > 50 µM.
Taken in the same sequence, the figures for `O=C(Nc1c2c(cc3c1CCC3)CCC2)NS(=O)(=O)N1CCC(F)(F)CC1` were > 100 µM and 1.12 µM.
Taken in the same sequence, the figures for `CC(C)(O)c1coc(S(=O)(=O)NC(=O)Nc2ccccc2Sc2ccccc2)c1` were > 100 µM and 35.1 µM.
As to `CN1CCC(N(C)S(=O)(=O)NC(=O)Nc2cccc3c2oc2ccccc23)CC1`, the CC50 in [1] is > 100 µM. Further, the IC50 in [2] was > 50 µM.
For `CN1CCC(n2cc(NS(=O)(=O)NC(=O)Nc3c4c(cc5c3CCC5)CCC4)cn2)CC1`, in that order: > 100 µM and 2.99 µM.
In the case of `CN1CCC(N(C)S(=O)(=O)NC(=O)Nc2cccc3c2NC(=O)C3)CC1`, the CC50 in assay [1] was > 100 µM. In addition, in assay [2], the IC50 is > 50 µM.
